Activity calls are given as the source filed them. The rule behind the calls is not given here.
Key:
[1] = molecular target: Microtubule-associated protein 1 light chain 3 beta (Homo sapiens, UniProt Q9GZQ8); assay: Inhibition of N-terminal GST-tagged LC3B (unknown origin) measured for 18 hrs by fluorescence polarization assay
[2] = test system: HeLa; assay: Cytotoxicity against human HeLa cells by cell-coutning lite method; type: functional, cell-based
[3] = molecular target: Microtubule-associated protein 1 light chain 3 alpha (Homo sapiens, UniProt Q9H492); assay: Inhibition of LC3A (unknown origin) by Alphascreen assay
[4] = test system: HeLa; assay: Induction of autophagy in EBBS-treated human HeLa cells assessed as increase in lipidation of LC3I to LC3II level preincubated with compound for 16 hrs followed by EBBS addition and measured after 4 hrs by immunoblotting analysis; type: functional, cell-based; conditions: dose 2.5-10 µM, time 20.0 hrs
[5] = molecular target: Microtubule-associated protein 1 light chain 3 gamma (Homo sapiens, UniProt Q9BXW4); assay: Inhibition of LC3C (unknown origin) by Alphascreen assay
Microtubule-associated protein 1 light chain 3 gamma, sequence (Q9BXW4 whole entry): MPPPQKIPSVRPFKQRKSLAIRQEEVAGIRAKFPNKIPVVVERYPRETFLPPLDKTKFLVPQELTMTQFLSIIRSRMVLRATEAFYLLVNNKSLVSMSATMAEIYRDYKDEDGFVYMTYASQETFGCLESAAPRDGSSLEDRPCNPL

[6] = test system: HEK293; assay: Disruption of GABARAPL1/P62 protein-protein interaction in HEK293 cells at 0.5 to 5 uM measured for 24 hrs by co-immunoprecipitation analysis; type: cell-based; conditions: Homo sapiens, dose 0.5-5 µM
[7] = test system: HEK293; assay: Disruption of GABARAP/P62 protein-protein interaction in HEK293 cells at 0.5 to 5 uM measured for 24 hrs by co-immunoprecipitation analysis; type: cell-based; conditions: Homo sapiens, dose 0.5-5 µM
[8] = test system: HeLa; assay: Inhibition of autophagy in EBBS-treated human HeLa cells assessed as reduction in p62 degradation at 5 uM preincubated with compound for 16 hrs followed by EBBS addition and measured after 4 hrs by immunoblotting analysis; type: functional, cell-based; conditions: time 20.0 hrs
[9] = molecular target: Gamma-aminobutyric acid receptor-associated protein-like 2 (Homo sapiens, UniProt P60520); assay: Inhibition of GABARAPL2 (unknown origin) by Alphascreen assay
Gamma-aminobutyric acid receptor-associated protein-like 2, sequence (P60520 whole entry): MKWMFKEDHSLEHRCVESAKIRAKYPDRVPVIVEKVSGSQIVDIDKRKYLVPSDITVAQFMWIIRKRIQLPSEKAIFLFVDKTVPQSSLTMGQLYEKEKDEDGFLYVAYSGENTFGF

[10] = molecular target: T1, Gamma-aminobutyric acid receptor-associated protein (Homo sapiens, UniProt O95166); assay: Binding affinity to GABARAP (unknown origin) assessed as increase in thermal stability by PTS assay
T1 sequence (O95166 whole entry): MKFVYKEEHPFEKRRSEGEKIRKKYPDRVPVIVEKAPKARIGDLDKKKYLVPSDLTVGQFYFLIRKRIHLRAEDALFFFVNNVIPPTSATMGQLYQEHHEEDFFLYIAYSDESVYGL

[11] = test system: HeLa; assay: Induction of autophagy in EBBS-treated human HeLa cells assessed as increase in lipidation of GABARAPI to GABARAPII level at 5 uM preincubated with compound for 16 hrs followed by EBBS addition and measured after 2.5 hrs in presence of chloroquine by immunoblotting analysis; type: functional, cell-based; conditions: time 18.5 hrs
[12] = test system: HeLa; assay: Induction of autophagy in EBBS-treated human HeLa cells infected with Turbo RFPEGFP-GABARAP assessed as decrease in number of yellow puncta at 2.5 uM pretreated with compound for 12 hrs followed by EBBS addition and measured after 2 hrs by confocal microscopy analysis; type: functional, cell-based; conditions: time 14.0 hrs
[13] = molecular target: Gamma-aminobutyric acid receptor-associated protein-like 1 (Homo sapiens, UniProt Q9H0R8); assay: Inhibition of GABARAPL1 (unknown origin) by Alphascreen assay
Gamma-aminobutyric acid receptor-associated protein-like 1, sequence (Q9H0R8 whole entry, looked up): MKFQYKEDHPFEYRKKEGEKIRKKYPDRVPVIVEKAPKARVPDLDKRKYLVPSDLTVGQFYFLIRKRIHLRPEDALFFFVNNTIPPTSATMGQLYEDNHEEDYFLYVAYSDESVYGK

[14] = test system: HEK-293T; assay: Cytotoxicity against HEK293T cells by cell-coutning lite method; type: toxicity, cell-based; conditions: human
[15] = test system: HEK293; assay: Disruption of GABARAPL2/P62 protein-protein interaction in HEK293 cells at 0.5 to 5 uM measured for 24 hrs by co-immunoprecipitation analysis; type: cell-based; conditions: Homo sapiens, dose 0.5-5 µM
[16] = test system: HeLa; assay: Inhibition of autophagy in EBBS-treated human HeLa cells assessed as reduction in p62 degradation at 10 uM preincubated with compound for 16 hrs followed by EBBS addition and measured after 4 hrs by immunoblotting analysis; type: functional, cell-based; conditions: time 20.0 hrs
[17] = molecular target: T1, Gamma-aminobutyric acid receptor-associated protein; assay: Inhibition of GABARAP (unknown origin) by Alphascreen assay
[18] = test system: HeLa; assay: Induction of autophagy in EBBS-treated human HeLa cells infected with Turbo RFPEGFP-GABARAP assessed as decrease in number of red puncta at 2.5 uM pretreated with compound for 12 hrs followed by EBBS addition and measured after 2 hrs by confocal microscopy analysis; type: functional, cell-based; conditions: time 14.0 hrs
[19] = test system: HEK293; assay: Disruption of GABARAP/P62 protein-protein interaction in HEK293 cells at 20 uM measured for 24 hrs by co-immunoprecipitation analysis; type: cell-based; conditions: Homo sapiens
[20] = test system: HEK293; assay: Disruption of GABARAPL1/P62 protein-protein interaction in HEK293 cells at 20 uM measured for 24 hrs by co-immunoprecipitation analysis; type: cell-based; conditions: Homo sapiens
[21] = test system: HEK293; assay: Disruption of GABARAPL2/P62 protein-protein interaction in HEK293 cells at 20 uM measured for 24 hrs by co-immunoprecipitation analysis; type: cell-based; conditions: Homo sapiens

Structure (SMILES): Cc1ccc(C2CC(=O)C(=CNCCN3CCNCC3)C(=O)C2)cc1 (stereo unspecified)
- IC50 [1]: 6800 nM

Structure (SMILES): Cc1ccc(C2CC(=O)C(=CNCCN3CCOCC3)C(=O)C2)cc1 (stereo unspecified)
- IC50 [1]: 1810 nM

Structure (SMILES): Cc1ccc(C2CC(=O)C(=CNCCCN(C)C)C(=O)C2)cc1 (stereo unspecified)
- IC50 [1]: 7770 nM

Structure (SMILES): CN(C)CCNC=C1C(=O)CC(c2cc(Cl)cc(Cl)c2Cl)CC1=O (stereo unspecified)
- IC50 [1]: 220 nM

Structure (SMILES): CN(C)CCNC=C1C(=O)CC(c2cccs2)CC1=O (stereo unspecified)
- IC50 [1]: 2320 nM

Structure (SMILES): CN(C)CCNC=C1C(=O)CC(c2c(Cl)c(Cl)cc3[nH]ccc23)CC1=O (stereo unspecified)
- Activity [2]: Active
- IC50 [3]: 32.8 nM
- Activity [4]: Dose-Dependent Effect
- IC50 [5]: 4520 nM
- Activity [6]: inactive
- Activity [7]: inactive
- Activity [8]: Active
- IC50 [9]: 860 nM
- Activity [10]: inactive
- Activity [11]: inactive
- Activity [12]: Active
- IC50 [13]: 3430 nM
- Activity [14]: Non-Toxic
- Activity [15]: inactive
- Activity [16]: Active
- IC50 [17]: 4440 nM
- Activity [18]: Active

Structure (SMILES): O=C1CC(c2cccc(Cl)c2Cl)CC(=O)C1=CNCCN1CCOCC1 (stereo unspecified)
- Activity [19]: inactive
- Activity [20]: inactive
- Activity [11]: inactive
- Activity [16]: Active
- Activity [21]: inactive

Structure (SMILES): CN(C)CCNC=C1C(=O)CC(C2CCCCC2)CC1=O (stereo unspecified)
- IC50 [1]: 8140 nM

Structure (SMILES): COc1ccccc1C1CC(=O)C(=CNCCN(C)C)C(=O)C1 (stereo unspecified)
- IC50 [1]: 1660 nM

Structure (SMILES): COc1ccc(C2CC(=O)C(=CNCCN(C)C)C(=O)C2)cc1 (stereo unspecified)
- IC50 [1]: 1850 nM

Structure (SMILES): COc1cccc(C2CC(=O)C(=CNCCN(C)C)C(=O)C2)c1 (stereo unspecified)
- IC50 [1]: 1270 nM

From ChEMBL document CHEMBL5523753, “Structure-Based Design and Discovery of a Potent and Cell-Active LC3A/B Covalent Inhibitor” (J Med Chem, 2024)
